{
  "source": "patent US20040057958A1",
  "about": "“Immunogenicity-enhancing carriers and compositions thereof and methods of using the same” (priority 2002, published 2004)",
  "test_system": "mice",
  "experiment": "ELISA of antisera from mice immunized with CPT1PaTXL",
  "assay_type": "in vivo",
  "settings": "ten mice inoculated SC/IP with CPT1PaTXL (first two inoculations +PTA); any bleed, including the terminal bleed; TXL coupled to BSA for ELISA",
  "description": "The hybridoma project began with a series of sequential inoculations by subcutaneous (SC) or interperitoneal (IP) injections of 100 μg of CPT1PaTXL formulated in PBS. In addition to the CPT1PaTXL, the first two inoculations also contained […] toxin as adjuvant (PTA). All subsequent inoculations were without PTA and had various amounts of CPT1PaTXL according to the following approximate schedule:\nTen mice were used in the immunization protocol. At each scheduled test bleed, 100 μl of blood was obtained from the tail, and an ELISA was conducted to evaluate reactivity against either Polyglutamate (PG) alone, Paclitaxel (TXL) or CT-2103. Because of the poor solubility of TXL in aqueous solutions, TXL was coupled to Bovine Serum Albumin, fraction V (Sigma Biochemicals, St. Louis Mo.) for ELISA testing. ELISA assays are performed as described in detail in Harlow, E. and Lane, D., Antibodies, A Laboratory Manual, Cold Spring Harbor Laboratory Press, 1988, pp. 564-569. Reactivity against the P. falciparum peptide epitope was analyzed following the terminal bleed.",
  "data": [
    {"smiles": "CC(=O)O[C@H]1C(=O)[C@@]2(C)[C@H]([C@H](OC(=O)c3ccccc3)[C@]3(O)C[C@H](OC(=O)[C@H](O)[C@@H](NC(=O)c4ccccc4)c4ccccc4)C(C)=C1C3(C)C)[C@]1(OC(C)=O)CO[C@@H]1C[C@@H]2O", "note": "[TXL, Paclitaxel]", "values": [
      {"measurement": "antibody reactivity (anti-PG, anti-TXL, anti-CT-2103) in ELISA of test bleeds", "result": "no detectable"}
    ]}
  ]
}
